Results taken from article PMC8878452, “A Tale of Toxin Promiscuity: The Versatile Pharmacological Effects of Hcr 1b-2 Sea Anemone Peptide on Voltage-Gated Ion Channels” (Marine Drugs, 2022).
Bridges are numbered along the chain shown (N, C = ends). Where no end group is shown, it is not given here.

Tests used:
[1] = tested on: rNav1.1; assay: TEVC, Nav1.1 in Xenopus oocytes; assay type: cell-based, rat
Excerpt: (§1) For the expression of Kv channels (rKv1.1, rKv1.2, rKv1.3, rKv1.4, rK1.5, rKv1.6, hKv2.1, hKv3.1, rKv4.2, hKv7.1, hKv7.2/7.3, hKv7.4, KQT1 (from the roundworm Caenorhabditis elegans), hKv10.1 (hEAG1), hKv11.1 (hERG1), and Shaker, from Drosophila melanogaster), Nav channels (rNav1.1, rNav1.2, rNav1.3, rNav1.4, hNav1.5, mNav1.6, hNav1.7, hNav1.8, and BgNav (from the cockroach Blattella germanica), as well as the hβ1 and rβ1 subunits, and Cav channels (rCav3.1, hCav3.2, and rCav3.3) in Xenopus oocytes, the linearized plasmids were transcribed using the T7 or SP6 mMESSAGEmMACHINE transcription kit (Ambion, Austin, TX, USA). Mature female animals were purchased from Nasco (Fort Atkinson, WI, USA) and were housed in the Aquatic Facility (KU Leuven) in compliance with the regulations of the European Union (EU) concerning the welfare of laboratory animals as declared in Directive 2010/63/EU. The use of X. laevis oocytes was approved by the Animal Ethics Committee of the KU Leuven, with the license number P186/2019.
(§2) Stage V–VI oocytes were collected from anesthetized female X. laevis frog as previously described, with the frogs anesthetized by placement in a 0.1% tricaine solution (amino benzoic acid ethyl ester; Merck, Kenilworth, NJ, USA). Oocyte microinjection was performed using a microinjector (Drummond Scientifc®, Broomall, PA, USA), with a programmed cRNA injection volume of 4–50 nL, depending on channel subtype. The oocytes were incubated in ND96 solution (96 mM NaCl; 2 mM KCl; 1.8 mM CaCl2; 2 mM MgCl2, and 5 mM HEPES, pH 7.4), supplemented with 50 mg/L of gentamicin sulfate.
(§3) Electrophysiological measurements were performed at room temperature (18–22 °C) using the two-electrode voltage-clamp (TEVC) technique. Data were obtained using a GeneClamp 500 amplifier (Axon Instruments®, Burlingame, CA, USA) and Clampex9 software (Axon Instruments®, USA) was responsible for data acquisition and storage. Glass micropipettes were produced using glass capillaries (borosilicate WPI 1B120-6) and drawn in a WPI (World Precision Instruments®, Sarasota, FL, USA) manual stretcher. The bath and perfusion solutions were either the previously described ND96 (Nav and Kv channels) or calcium-free ND96 supplemented with 10 mM BaCl2 (Cav channels).
(§4) Whole-cell currents of oocytes were recorded 1 to 3 days after RNA injection. The current and voltage electrodes were filled with 3 M KCl, and their resistance was adjusted from 1.0 to 2.5 MΩ. Currents were sampled at 20 kHz (Nav channels) and 10 kHz (Kv and Cav channels) and filtered using a four-pole Bessel low-pass Bessel filter at 1 kHz for sodium and […] for potassium and calcium, except for the hERG ion channel in which the currents were filtered at 1 kHz. Leak subtraction was performed using a P/4 protocol. Kv1.x currents were evoked by 500 ms depolarizations to 0 mV, followed by a 500 ms pulse to −50 mV from a holding potential of −90 mV. Kv2.1, Kv3.1, Kv4.2, Kv7.x, and KQT1 currents were elicited by 700 ms pulses to +20 mV from a holding potential of −90 mV. Current traces of the hERG1 channel were elicited by applying a +40 mV prepulse for 2 s, followed by a step of −120 mV for 2 s. […] The current–voltage relationships were determined by 50 ms step depolarizations between −90 and +65 mV using 5 or 10 mV increments. All electrophysiological data were analyzed following the procedures described by Peigneur et al., 2012 [20].
(§5) All values were expressed as means ± SEM. […]

[2] = tested on: hCav3.2; assay: TEVC, Cav3.2 in Xenopus oocytes; assay type: cell-based, human
Excerpt: as §1, §2, §3, §4, §5

[3] = tested on: rKv1.6; assay: TEVC, Kv1.6 in Xenopus oocytes; assay type: cell-based, rat; details: 1 µM, n ≥ 3
Excerpt: as §1, with “P186/2019. […]” for “P186/2019.”
(§6) Whole-cell currents of oocytes were recorded 1 to 3 days after RNA injection. […] The current–voltage relationships were determined by 50 ms step depolarizations between −90 and +65 mV using 5 or 10 mV increments. All electrophysiological data were analyzed following the procedures described by Peigneur et al., 2012 [20].
as §5

[4] = tested on: KQT1; assay: TEVC, KQT1 in Xenopus oocytes; assay type: cell-based, Caenorhabditis elegans
Excerpt: as §1, §2, §3, §4, §5

[5] = tested on: Shaker; assay: TEVC, Shaker in Xenopus oocytes; assay type: cell-based, Drosophila melanogaster; details: 1 µM, ND96 pH 7.4, 18–22 °C, n ≥ 3
Excerpt: as §1, with “P186/2019. […]” for “P186/2019.”
as §6, §5

[6] = tested on: tested animals; details: cited from earlier work
Procedure: Recently, the Hcr 1b-2 sequence was determined, together with two other peptides, named Hcr1b-3 and Hcr1b-4, which share 97.6% and 78.0% of sequence identity, respectively (Figure 1).

[7] = tested on: rKv4.2; assay: TEVC, Kv4.2 in Xenopus oocytes; assay type: cell-based, rat; details: 1 µM, ND96 pH 7.4, 18–22 °C, n ≥ 3
Excerpt: as §1, with “P186/2019. […]” for “P186/2019.”
as §6, §5

[8] = tested on: hNav1.7; assay: TEVC, Nav1.7 in Xenopus oocytes; assay type: cell-based, human
Excerpt: as §1, §2, §3
Whole-cell currents of oocytes were recorded 1 to 3 days after RNA injection. The current and voltage electrodes were filled with 3 M KCl, and their resistance was adjusted from 1.0 to 2.5 MΩ. Currents were sampled at 20 kHz (Nav channels) and 10 kHz (Kv and Cav channels) and filtered using a four-pole Bessel low-pass Bessel filter at 1 kHz for sodium and […] for potassium and calcium, except for the hERG ion channel in which the currents were filtered at 1 kHz. Leak subtraction was performed using a P/4 protocol. Kv1.x currents were evoked by 500 ms depolarizations to 0 mV, followed by a 500 ms pulse to −50 mV from a holding potential of −90 mV. Kv2.1, Kv3.1, Kv4.2, Kv7.x, and KQT1 currents were elicited by 700 ms pulses to +20 mV from a holding potential of −90 mV. Current traces of the hERG1 channel were elicited by applying a +40 mV prepulse for 2 s, followed by a step of −120 mV for 2 s. Current traces of hEAG1 were elicited by a 2 s depolarization to 0 mV from a holding potential of −90 mV. Sodium current traces were evoked by a 100 ms depolarization to 0 mV. For Cav channels, current traces were elicited by 700 ms depolarizations to −20 mV from a holding potential of −90 mV. The current–voltage relationships were determined by 50 ms step depolarizations between −90 and +65 mV using 5 or 10 mV increments. All electrophysiological data were analyzed following the procedures described by Peigneur et al., 2012 [20].
All values were expressed as means ± SEM. Differences in ionic currents between the control and toxin conditions were compared by a one-way ANOVA, followed by Dunnett’s multiple comparisons test. Differences were considered statistically significant when […].

[9] = tested on: hKv3.1; assay: TEVC, Kv3.1 in Xenopus oocytes; assay type: cell-based, human; details: 1 µM, ND96 pH 7.4, 18–22 °C, n ≥ 3
Excerpt: as §1, with “P186/2019. […]” for “P186/2019.”
as §6, §5

[10] = tested on: ASIC3; details: cited from earlier work
Excerpt: (§7) Hcr 1b-2, the major peptide, presents 41 residues and belongs to the class 1b of sea anemone toxins, with a molecular mass of 4518.9 Da (Uniprot accession number C0HL52).

[11] = tested on: ASIC1a; details: cited from earlier work
Excerpt: as §7

[12] = tested on: BgNav; assay: TEVC, BgNav in Xenopus oocytes; assay type: cell-based, Blattella germanica
Excerpt: as §1, §2, §3, §4, §5

[13] = 1 µM, 100 ms depolarization to 0 mV, mean ± SEM, n ≥ 3
[14] = 1 µM vs control (ND96 Ca2+ free)

Sequence: GTPCKCHGYIGVYWFMLAGCPNGYGYNLSCPYFLGICCVKK (disulfide 4-37, 6-30, 20-38 (inferred)) [Hcr 1b-2]
- Shift in Vhalf activation, Nav1.1 ([1]; 1 µM vs control (ND96)): 0.1 mV
- Shift in Vhalf inactivation, Nav1.1 ([1]; 1 µM vs control (ND96)): −5.8 mV
- reduction of peak amplitude (INa) / inhibition, Nav1.1 [1, 13]: 31.2 ± 3.8%
- Vhalf activation, Nav1.1 ([1]; 1 µM, control (ND96) −24.6 ± 0.1, mean ± SEM, n ≥ 3): −24.5 ± 0.1 mV
- Vhalf inactivation, Nav1.1 ([1]; 1 µM, control (ND96) −37.2 ± 0.2, mean ± SEM, n ≥ 3): −43 ± 0.4 mV
- Shift in Vhalf activation, Cav3.2 [2, 14]: −0.4 mV
- Shift in Vhalf inactivation, Cav3.2 [2, 14]: 0.5 mV
- inhibition, Cav3.2 ([2]; 1 µM, calcium-free ND96 + 10 mM BaCl2, 700 ms depolarization to −20 mV from −90 mV, mean ± SEM, n ≥ 3): 35.1 ± 0.7%
- Vhalf activation, Cav3.2 ([2]; 1 µM, control (ND96 Ca2+ free) −31.9 ± 0.1, mean ± SEM, n ≥ 3): −32.3 ± 0.2 mV
- Vhalf inactivation, Cav3.2 ([2]; 1 µM, control (ND96 Ca2+ free) −46.6 ± 0.8, mean ± SEM, n ≥ 3): −46.1 ± 0.6 mV
- activity (inhibition of current), Kv1.6 ([3]; 500 ms depolarization to 0 mV from −90 mV, mean ± SEM): 31.5 ± 6.7%
- effect on potassium current, Kv1.6 ([3]; TEVC, ND96 pH 7.4, 18–22 °C): inhibition
- gating-modifier effect (voltage-current relationship), KQT1 ([4]; 1 µM): stronger shift
- Shift in Vhalf activation, KQT1 ([4]; 1 µM vs control (ND96)): 7.9 mV
- activity (inhibition of current), KQT1 ([4]; 1 µM, 700 ms pulse to +20 mV from −90 mV, mean ± SEM, n ≥ 3): 33.4 ± 3.3%
- effect on potassium current, KQT1 ([4]; 1 µM, TEVC, ND96 pH 7.4, 18–22 °C, n ≥ 3): inhibition
- Vhalf activation, KQT1 ([4]; 1 µM, control (ND96) 14.6 ± 0.4, mean ± SEM): 22.4 ± 0.5 mV
- effect on potassium current, Shaker [5]: activation
- signs of neurotoxicity or changes in behavior [6]: None of these three peptides showed signs of neurotoxicity or changes in the behavior
- effect on potassium current, Kv4.2 [7]: inhibition
- effect on activation or inactivation, Nav1.7 ([8]; 1 µM): no significant effect
- Shift in Vhalf activation, Nav1.7 ([8]; 1 µM vs control (ND96)): −2.8 mV
- Shift in Vhalf inactivation, Nav1.7 ([8]; 1 µM vs control (ND96)): −0.5 mV
- reduction of peak amplitude (INa) / inhibition, Nav1.7 [8, 13]: 38.7 ± 1.8%
- Vhalf activation, Nav1.7 ([8]; 1 µM, control (ND96) −26.9 ± 0.1, mean ± SEM, n ≥ 3): −29.7 ± 0.1 mV
- Vhalf inactivation, Nav1.7 ([8]; 1 µM, control (ND96) −38.1 ± 0.3, mean ± SEM, n ≥ 3): −38.6 ± 0.4 mV
- effect on potassium current, Kv3.1 [9]: not active
- IC50 [10]: 15.9 ± 1.1 µM
- IC50 [11]: 4.8 ± 0.3 µM
- Shift in Vhalf activation, BgNav ([12]; 1 µM vs control (ND96)): 1.9 mV
- Shift in Vhalf inactivation, BgNav ([12]; 1 µM vs control (ND96)): −5.0 mV
- reduction of peak amplitude (INa) / inhibition, BgNav [12, 13]: 17.7 ± 1.2%
- Vhalf activation, BgNav ([12]; 1 µM, control (ND96) −29.0 ± 0.1, mean ± SEM, n ≥ 3): −27.1 ± 0.1 mV
- Vhalf inactivation, BgNav ([12]; 1 µM, control (ND96) −47.9 ± 0.3, mean ± SEM, n ≥ 3): −52.9 ± 0.3 mV
